Experimental data taken from US11685761B2, “Cyclic di-nucleotide compounds as sting agonists” (Merck Sharp & Dohme Corp., priority 2017, dated 2023).

Key:
[1] = system: IFN-β secretion from THP1 cells; assay: IFN-β secretion in THP1 cell culture (5 h); type: cell-based, human; conditions: THP1 cells, 5 h incubation, compound at 30 μM, 30 uM cGAMP = 100%; for activation at 30 µM: Homo sapiens, THP-1, 5 h, read-out: % Effect at 30 μM relative to 2′3′-cGAMP
Description: The ability of compounds to stimulate the secretion of interferon-beta from THP1 cells was measured using a human IFN-β AlphaLISA kit (Perkin Elmer, Cat. No. AL265F). The basic protocol is as follows:
The cell viability and count was ascertained using a Beckman Coulter V-Cell XR cell counter. The cell suspension was centrifuged at 200×g for 5 min at RT. Cells were resuspended to a density of 0.8×10^6/mL in 37° C. assay medium. Subsequent liquid transfers were performed using either a Matrix electronic multichannel pipette or an Agilent Bravo Automated Liquid Handling Platform.
The assay was started by dispensing 40 μL of the previously prepared cell suspension into the wells of the plate containing compounds. After 5 h incubation at 37° C., 5% CO2 in a humidified atmosphere, the plate of cells and compounds was centrifuged at 200×g for 5 min at RT. […] To these supernatant-containing wells was added 10 μL of 5× Anti-Analyte Acceptor beads (50 μg/mL of AlphaLISA HiBlock Buffer) and incubated for 30 min at RT while shaking on an orbital plate shaker. To each well was added 10 μL of 5× Biotinylated Antibody Anti-analyte (5 nM in AlphaLISA HiBlock Buffer) and incubated on an orbital plate shaker for 60 min at RT or overnight at 4° C. To each well was added 25 μL of 2× SA-Donor beads (80 μg/mL in AlphaLISA HiBlock Buffer) and incubated for 30-45 min at RT in the dark while shaking on an orbital plate shaker. The plate was then read on a Perkin Elmer Envision (λex680 nm, λem=570 nm). The percent effect of the AlphaLISA signal at each compound concentration was calculated based on 30 uM cGAMP positive controls and 0.3% DMSO negative controls. The plot of percent effect versus the log of compound concentration was fit with a 4-parameter concentration response equation to calculate EC50 values.
Compounds of the disclosure were evaluated for IFN-β secretion in THP1 cell culture as described above.

[2] = biological target: T1, full-length WT STING (Homo sapiens, UniProt Q86WV6, H232R); assay: 3H-cGAMP filtration binding assay (WT STING); conditions: competition with tritiated cGAMP ligand; T. ni cell membranes overexpressing full-length WT STING
T1 construct: made in house; host or cells: Trichoplusia ni insect cells, baculovirus generated in Sf21; crude membranes
T1 sequence (Q86WV6 with tags, fused parts or gaps H232R): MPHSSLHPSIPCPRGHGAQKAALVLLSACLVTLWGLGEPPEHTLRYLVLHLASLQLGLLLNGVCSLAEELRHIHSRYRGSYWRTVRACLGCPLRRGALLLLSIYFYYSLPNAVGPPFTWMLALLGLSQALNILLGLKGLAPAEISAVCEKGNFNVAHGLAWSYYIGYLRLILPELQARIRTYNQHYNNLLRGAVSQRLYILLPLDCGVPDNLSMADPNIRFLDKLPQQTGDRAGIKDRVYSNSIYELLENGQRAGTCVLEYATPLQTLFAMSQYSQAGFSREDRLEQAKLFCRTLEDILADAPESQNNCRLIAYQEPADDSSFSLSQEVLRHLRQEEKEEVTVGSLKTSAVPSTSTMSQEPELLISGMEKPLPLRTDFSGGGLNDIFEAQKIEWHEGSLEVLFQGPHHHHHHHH
Description: (§1) The ability of compounds to bind STING is quantified by their ability to compete with tritiated cGAMP ligand for human STING receptor membrane using a radioactive filter-binding assay. The binding assay employs STING receptor obtained from Trichoplusia ni cell membranes (T. ni; Expression Systems, cat #94-002F, www.expressionsystems.com) overexpressing full-length WT STING and tritiated cGAMP ligand.
The basic WT STING filtration assay protocol is as follows:
16 nM of [^3H] c-GAMP ligand was prepared by diluting into assay buffer, and 50 uL of this working stock was manually added to each well of the assay plate. After ligand addition, 2 uL of either titrated test compound, DMSO control (Sigma #276855), or cold cGAMP control was added to the appropriate wells using a BIOMEK FX. The serially titrated compound was prepared on a Hamilton STARPlus CORE in a 96-well plate (Greiner, #651201) using a 1:3 ten-point dose response format. Following compound addition, a 2.2 ug/ml working concentration of STING membrane (SEQ. ID. No. 3) was prepared by diluting concentrated membrane into assay buffer (1×PBS; Invitrogen #SH30028.02) and douncing 7× using a manual tissue homogenizer (Wheaton, #357546). 148 uL of this prepared membrane was then manually added to each well of a 96-well deep-well polypropylene plate (Fisher Scientific, #12-566-121). Compound, ligand, and membrane then incubated for 60 min at RT before the contents of each assay plate were filtered through a 96-well GF/B filter plate (PerkinElmer, #6005250) using a TOMTEC MACH III Cell Harvester equipped with 20 mM HEPES buffer (Fisher Scientific, #BP299500). The filter plates were then dried at 55° C. for 30 min using a pressurized VWR oven before 30 uL of ULTIMA GOLD F scintillate was added to each well. Tritium levels for each reaction well were then measured using a PerkinElmer TopCount plate reader.
(§2) After normalization to controls, the percent activity for each compound concentration was calculated by measuring the amount of remaining radioactivity. The plot of percent activity versus the log of compound concentration was fit with a 4-parameter dose response equation to calculate EC50 values.

[3] = biological target: T2, full-length HAQ STING (Homo sapiens, UniProt Q86WV6, G230A/H232R/R293Q/R71H); assay: 3H-cGAMP filtration binding assay (HAQ STING); conditions: competition with tritiated cGAMP ligand; T. ni cell membranes overexpressing full-length HAQ STING
T2 construct: made in house; host or cells: Trichoplusia ni (Hi-Five) insect cells, baculovirus generated in Sf21; crude membranes
T2 sequence (Q86WV6 with tags, fused parts or gaps R71H/G230A/H232R/R293Q): as the sequence (Q86WV6 with tags, fused parts or gaps H232R) above, with R71H, G230A, R293Q counted along it
Source text: The ability of compounds to bind STING is quantified by the ability to compete with tritiated cGAMP ligand for human STING receptor membrane using a radioactive filter-binding assay. The binding assay employs STING receptor obtained from Hi-Five cell membranes overexpressing full-length HAQ STING prepared in-house and tritiated cGAMP ligand also purified in-house.
as §1, with “HAQ” for “WT”
The basic HAQ STING filtration assay protocol is as follows:
The compounds were serially titrated by the Hamilton STARPlus CORE in a 96-well plate (Greiner, #651201) using a 1:3 ten-point dose response format. […] 148 uL of prepared membrane was then manually added to each well of a 96-well deep-well polypropylene plate (Fisher Scientific, #12-566-121). Following membrane addition, 2 uL of either titrated test compound, DMSO control (Sigma #276855), or cold cGAMP control was added to the appropriate wells using a BIOMEK FX. Compound and membrane then preincubated for 60 min at RT to allow compound binding to equilibrate. Following equilibration, 8 nM of [^3H] c-GAMP ligand was prepared by diluting into assay buffer, and 50 uL of this working stock was then manually added to each well of the assay plate. Plates were then incubated at RT for 60 min, and the contents of each assay plate were then filtered through a 96-well GF/B filter plate (PerkinElmer, #6005250) using a TOMTEC MACH III Cell Harvester equipped with 20 mM HEPES buffer (Fisher Scientific, #BP299500). The filter plates were then dried at 55° C. for 30 min using a pressurized oven before 30 uL of ULTIMA GOLD F scintillate was added to each well. Tritium levels for each reaction well were then measured using a PerkinElmer TopCount plate reader.
as §2

EC50 [2] [nM]	EC50 [3] [nM]	Compound	activation at 30 µM [1] [%]	% Effect at 30 μM relative to 2′3′-cGAMP [1] [%]
393	1	Nc1nc2c(ncn2[C@@H]2O[C@@H]3CO[P@@](=O)(S)O[C@H]4C[C@H](n5ccc6c(=O)[nH]cnc65)O[C@@H]4CO[P@@](=O)(S)O[C@@H]2C3)c(=O)[nH]1 (single isomer, unassigned) [Example 38]	109	–
2830	5	Nc1nc2c(ncn2[C@@H]2O[C@@H]3COP(=O)(S)O[C@H]4[C@H](F)[C@H](n5ccc6c(=O)[nH]cnc65)O[C@@H]4COP(=O)(S)O[C@@H]2[C@@H]3F)c(=O)[nH]1 (single isomer, unassigned) [Example 40]	–	150
46	1	Nc1nc2c(nnn2[C@@H]2O[C@@H]3COP(=O)(S)O[C@H]4C[C@H](n5ccc6c(=O)[nH]cnc65)O[C@@H]4COP(=O)(S)O[C@@H]2C3)c(=O)[nH]1 (single isomer, unassigned) [Example 42]	–	72
148	37	Nc1nc2c(nnn2[C@@H]2O[C@@H]3COP(=O)(S)O[C@H]4C[C@H](n5ccc6c(=O)[nH]cnc65)O[C@@H]4COP(=O)(S)O[C@@H]2C3)c(=O)[nH]1 (single isomer, unassigned) [Example 43]	–	120
2400	16	Nc1ncnc2c1ncn2[C@@H]1O[C@@H]2COP(=O)(S)O[C@H]3[C@H](F)[C@H](n4ccc5c(=O)[nH]cnc54)O[C@@H]3COP(=O)(S)O[C@@H]1C2 (single isomer, unassigned) [Example 46]	–	166
756	1	Nc1nc2c(nnn2[C@@H]2S[C@@H]3COP(=O)(S)O[C@H]4[C@H](F)[C@H](n5ccc6c(=O)[nH]cnc65)O[C@@H]4COP(=O)(S)O[C@@H]2[C@@H]3F)c(=O)[nH]1 (single isomer, unassigned) [Example 49]	–	163
9130	4	Nc1nc2c(nnn2[C@@H]2S[C@@H]3COP(=O)(S)O[C@H]4[C@H](F)[C@H](n5ccc6c(=O)[nH]cnc65)O[C@@H]4COP(=O)(S)O[C@@H]2[C@@H]3F)c(=O)[nH]1 (single isomer, unassigned) [Example 50]	–	109

More lines, now with the values behind:

Compound	EC50 [2] [nM]	EC50 [3] [nM]	activation at 30 µM [1] [%]	% Effect at 30 μM relative to 2′3′-cGAMP [1] [%]
Nc1ncnc2c1ncn2[C@@H]1O[C@@H]2CO[P@@](=O)(S)O[C@@H]3[C@H](O)[C@@H](CO[P@@](=O)(S)O[C@H]2[C@H]1O)O[C@H]3n1ccc(=O)n2ccnc12 (single isomer, unassigned) [Example 1]	1640	77	143	–
Nc1ncnc2c1ncn2[C@@H]1O[C@@H]2COP(=O)(S)O[C@@H]3[C@H](O)[C@@H](COP(=O)(S)O[C@H]2[C@@H]1F)O[C@H]3n1cnc2c(=O)n3cc[nH]c3nc21 (single isomer, unassigned) [Example 15]	43	–	–	318
Nc1ncnc2c1ncn2[C@@H]1O[C@@H]2COP(=O)(S)O[C@@H]3[C@H](O)[C@@H](COP(=O)(S)O[C@H]2[C@@H]1F)O[C@H]3n1cnc2c(=O)n3cc[nH]c3nc21 (single isomer, unassigned) [Example 16]	90	–	–	281
Nc1ncnc2c1ncn2[C@@H]1O[C@@H]2CO[P@@](=O)(S)O[C@@H]3C[C@@H](CO[P@](=O)(S)O[C@H]2[C@@H]1F)O[C@H]3n1ccc(=O)n2ccnc12 (single isomer, unassigned) [Example 20]	83	15	169	–
Nc1nc2c(ncn2[C@@H]2O[C@@H]3COP(=O)(S)O[C@H]4C[C@H](n5cc(F)c6c(=O)[nH]cnc65)O[C@@H]4COP(=O)(S)O[C@@H]2[C@@H]3F)c(=O)[nH]1 (single isomer, unassigned) [Example 53]	253	167	85	–
Nc1ncnc2c1ncn2[C@@H]1O[C@@H]2CO[P@@](=O)(S)O[C@@H]3[C@H](O)[C@@H](CO[P@](=O)(S)O[C@H]2[C@H]1O)O[C@H]3n1ccc(=O)n2ccnc12 [Example 2, 8-[(2S,5R,7R,8R,10R,12aR,14R,15R,15aS,16R)-14-(6-amino-9H-purin-9-yl)-15,16-dihydroxy-2,10-dioxido-2,10-disulfanyloctahydro-12H-5,8-methanofuro[3,2-l][1,3,6,9,11,2,10]pentaoxadiphospha-cyclotetradecin-7-yl]imidazo[1,2-a]pyrimidin-5(8H)-one]	32	2	44	–
Nc1ncnc2c1ncn2[C@@H]1O[C@@H]2COP(=O)(S)O[C@@H]3[C@H](O)[C@@H](COP(=O)(S)O[C@H]2[C@@H]1F)O[C@H]3n1cnc2c(=O)n3c(nc21)NC(=O)C3 (stereo partly drawn) [Example 14, 3-[(5R,7R,8R,12aR,14R,15S,15aR,16R)-14-(6-amino-9H-purin-9-yl)-15-fluoro-16-hydroxy-2,10-dioxido-2,10-disulfanyloctahydro-12H-5,8-methanofuro[3,2-l][l,3,6,9,11,2,10]pentaoxadiphosphacyclotetradecin-7-yl]-3H-imidazo[1,2-a]purine-6,9(5H,7H)-dione]	433	–	12	–
